Data as given in paper PMC8981457, “Cdyl Deficiency Brakes Neuronal Excitability and Nociception through Promoting Kcnb1 Transcription in Peripheral Sensory Neurons” (Advanced Science, 2022).
Where two headings read alike, the source gives them in different places. *1 amine or outer side, *2 acyl side, *3 side chain or, on linkers, in order; H or OH if unused. Where a SMILES comes first, the peptide text is derived from it. [ ]: non-standard residue; d: D form. X1 = N6‑isopropyl‑N6‑((1-methyl-1H-imidazol-5-yl)methyl)Lys, CC(C)N(CCCC[C@H](N[*:1])C(=O)[*:2])Cc1cncn1C; X2 = CC(C)N(CCCC[C@H](N[*:1])C(=O)[*:2])Cc1cncn1C; Phe(F5) = N[C@@H](Cc1c(F)c(F)c(F)c(F)c1F)C(=O)O; NMeA = CN[C@@H](C)C(=O)O; Inp = O=C(O)C1CCNCC1

Assays:
[1] = molecular target: T1, CDYL chromodomain (Homo sapiens, UniProt Q9Y232); experiment: isothermal titration calorimetry; type: binding
T1 construct: chromodomain residues 1-78 of NP_004815, N-terminal GST tag (pGEX4T) removed by thrombin for ITC, E. coli Rosetta2 BL21(DE3)pLysS
T1 sequence (Q9Y232 1-78 isoform Q9Y232-2): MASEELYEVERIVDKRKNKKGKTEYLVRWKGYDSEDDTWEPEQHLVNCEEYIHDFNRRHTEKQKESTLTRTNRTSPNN

[2] = molecular target: T2, chromodomain of CDYL2 (residues 1-75 of NP_689555) (UniProt Q8N8U2 1-75); experiment: AlphaScreen or HTRF; TR-FRET competition assay for CDYL2, dose-response; 20 mM tris pH 7.5, 150 mM NaCl, 0.05% Tween 20, 2 mM DTT; 1 h equilibration; tracer not named (ref. 30); conditions: both partners purified
T2 construct: chromodomain Y-like protein 2 (CDYL2), chromodomain, residues 1-75 of NP_689555; source: E. coli Rosetta2 BL21(DE3)pLysS, purified (HisTrap FF, Superdex 75)
T2 sequence (looked up): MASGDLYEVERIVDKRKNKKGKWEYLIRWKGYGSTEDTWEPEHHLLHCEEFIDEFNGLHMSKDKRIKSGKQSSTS

[3] = molecular target: T3, chromodomain of MPP8 (residues 55-116 of NP_059990) (UniProt Q99549-1 55-116); experiment: not stated; selectivity of UNC6261 among chromodomains (Figure S7); method not given; conditions: both partners purified
T3 construct: M-phase phosphoprotein 8 (MPP8), chromodomain, residues 55-116 of NP_059990; source: E. coli Rosetta2 BL21(DE3)pLysS, purified (HisTrap FF, Superdex 75)
T3 sequence (looked up): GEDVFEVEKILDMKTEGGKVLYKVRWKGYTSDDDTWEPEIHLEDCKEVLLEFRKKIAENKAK

COC(=O)[C@H](CO)NC(=O)[C@H](CCCCN(Cc1cncn1C)C(C)C)NC(=O)[C@H](Cc1ccccc1)NC(=O)[C@H](C)N(C)C(=O)[C@H](Cc1c(F)c(F)c(F)c(F)c1F)NC(=O)C1CCNCC1 [UNC7394, Methyl N ^6‐isopropyl‐N ^6‐((1‐methyl‐1H‐imidazol‐5‐yl)methyl)‐N ^2‐N‐methyl‐N‐((S)‐3‐(perfluorophenyl)‐2‐(piperidine‐4‐carboxamido)propanoyl)‐L‐alanyl‐L‐phenylalanyl‐L‐lysyl‐L‐serinate] (H-[Inp][Phe(F5)][NMeA]F[X2]S-OMe) gave a Kd ([1]; read-out: no measurable binding) of over 50000 nM.

In the case of COC(=O)[C@H](CO)NC(=O)[C@H](CCCCN(Cc1cncn1C)C(C)C)NC(=O)[C@H](Cc1ccccc1)NC(=O)[C@H](C)NC(=O)[C@H](Cc1c(F)c(F)c(F)c(F)c1F)NC(=O)C1CCNCC1 [UNC6261, Methyl N ^6‐isopropyl‐N ^6‐((1‐methyl‐1H‐imidazol‐5‐yl)methyl)‐N ^2‐((S)‐3‐(perfluorophenyl)‐2‐(piperidine‐4‐carboxamido)propanoyl)‐L‐alanyl‐L‐phenylalanyl‐L‐lysyl‐L‐serinate] (H-[Inp][Phe(F5)]AF[X2]S-OMe), the Kd ([1]; read-out: Kd) is reported as 139 ± 3.3 nM.

B1: UNC6261 (peptide)
peptide: {piperidine‑4‑carbonyl}-[Phe(F5)]AF[X1]S-OMe
notes: peptidomimetic pentapeptide; F1 stands for pentafluorophenylalanine, K4 for the dialkylated lysine mimetic; also called CDYL antagonist; source: synthetic, purified by reverse phase flash chromatography (TFA salt)
With B1 the IC50 [2] was 81 ± 16 nM and the “fold selectivity for CDYL over MPP8” value [3] was 13 fold.
